Results taken from publication PMC4823124, “Selective targeting of BCL6 induces oncogene addiction switching to BCL2 in B-cell lymphoma” (Oncotarget, 2015).

Experiments:
SC-1 = experiment: Growth inhibition (GI50); type: cell-based; settings: 48 h, resazurin reduction
Description: (§1) Cells were grown on U-bottom 96-well plates at respective concentrations sufficient to keep untreated cells under exponential growth by the time of read-out after treatment. Cells were exposed to each drug alone and to the combination of both drugs on the same plate in 48 h experiments. In sequential experiments, compounds were added 48 h apart in 72 h experiments. Cell viability was then determined using a fluorometric assay based on the resazurin reduction activity of the cells (Cell Titer Blue, Promega) and confirmed by trypan blue dye-exclusion (Sigma). Fluorescence was determined for controls and three replicates per treatment condition using the Synergy4 microplate reader (BioTek). Standard curves were obtained for each individual cell line with the cell count and fluorescence values. The number of viable cells was obtained using the least-squares regression method of the standard curve and by doing a ratiometric quantification of viable cells normalized to the respective controls. Experiments were conducted in triplicates. A cell killing effect was calculated as the 1 — normalized viability value.

SU-DHL4 = experiment: Growth inhibition (GI50); type: cell-based; settings: 48 h, resazurin reduction
Description: as §1

OCI-Ly1 lymphoma tissues = experiment: TUNEL assay of xenografted lymphoma tissues; type: in vivo, SCID mice; settings: post-treatment OCI-Ly1 lymphoma tissues; Mann-Whitney p = 0.0004 (RI-BPI), 0.002 (obatoclax), 0.0008 (bortezomib)
Description: DNA fragmentation coupled to the apoptotic response was detected in morphologically identifiable nuclei and apoptotic bodies present in formalin-fixed paraffin-embedded tumors by the TUNEL assay (ApopTag, Chemicon, Temecula, California) following the manufacturer's instructions. Tissue slides were pre-treated with 0.5% trypsin for 15 minutes (Zymed, San Francisco, California), to improve the exposure of DNA.

[1] = for MPV: C57BL/6 mice, i.p., schedule and doses of xenograft mice (RI-BPI 25, obatoclax 2, bortezomib 0.3 mg/kg/day, MLN4924 15 mg/kg every 12 h), vehicle 6.7
From the text: (§2) www.impactjournals.com/oncotarget/ Oncotarget, Supplementary Materials 2015
Hematological and biochemical parameters of C57BL/6 mice treated with the schedule and doses of OCI-Ly1 and OCI-Ly7

NFkB (p50) = experiment: NFkB DNA-binding activity assay (TransAM), OCI-Ly1 cells; type: cell-based; settings: drug at GI50 for 24 h, only p50 changed
OCI-Ly7 xenografts = experiment: OCI-Ly7 xenograft tumor growth; type: in vivo, SCID mice; settings: p<0.05, T-test; for tumor growth at day 10 (AUC of tumor volume) vs vehicle: OCI-Ly7 xenografts in SCID mice, i.p. 10 days, RI-BPI 25 mg/kg/day, obatoclax 2 mg/kg/day, bortezomib 0.3 mg/kg/day, MLN4924 15 mg/kg every 12 h
Description: (§3) For these experiments OCI-Ly1 and OCI-Ly7 cells were injected in the right flank of SCID mice (n = 80 for each cell line) and tumor growth was allowed until reaching a volume of 75 - 100 mm^3. […] Tumor growth was measured every day during the 10-day treatment course and the area under the curve (AUC) was calculated.
(§4) Mouse xenografts: Animal procedures followed NIH protocols and were approved by the Animal Institute Committee of the Weill Cornell College or Medicine. SCID mice were subcutaneously injected on the right flank with GCB-DLBCL cell lines OCI-Ly1, OCI-Ly7 and SU-DHL6. Tumor volumes were monitored every day using electronic calipers (Fischer Scientific). When tumor reached a palpable size (around 75 to 100 mm^3) animals were randomized into 8 groups of 10 mice (or four groups of 5 mice for SU-DHL6 xenografts) and treated intraperitoneally accordingly to the schedule and doses shown in Figure 5A. In combinatorial treatments, mice were injected with RI-BPI (or vehicle) alone the first day followed by the combination the subsequent days. We used the area-under-the-curve (AUC) as the quantitative metric to represent the evolution of tumor volume over the time frame (10 – 13 days) of the experiment. The comparisons between treated and control mice were done using MANOVA followed by pair-wise comparison using the two-tailed T-test or Mann Whitney test for SU-DHL6 mice. Rat pharmacokinetic: Animal procedures followed NIH protocols and were conducted by Calvert Laboratories (study 0835RM44.001, Scott Township, PA). Briefly, male Sprague=Dawley rats (n = 3) were injected intravenously with 10 mg/kg of RI-BPI in sterile 50% water:50% saline and whole blood samples were collected through a jugular vein catheter at several time-points. Derived plasma samples were analyzed by HPLC-UV to determine RI-BPI concentration. Pharmacokinetic parameters were estimated using a non-compartmental approach consistent with the route of administration. The AUC that describe the total exposure to RI-BPI was estimated with the linear trapezoidal method and used to derive in vitro exposure doses.

NOXA = NOXA immunoblot; type: cell-based; settings: SU-DHL6 and OCI-Ly1 cells, 24 h
Description: (§5) Cell pellets containing 5 × 10^6 cells were washed with ice-cold phosphate buffer saline and lysed with RIPA buffer (Tris-HCl 50mM, NaCl, 150 mM, NP-40 1%, Sodium Deoxylcholate 0.25%, SDS 0.1%), and fresh protease inhibitor cocktail (Roche) was added. Protein concentration in lysates was determined by BCA assay (Pierce) and 15 μg of protein sample were loaded on polyacrylamide electrophoresis pre-cast gels (BioRad). PVDF membranes were blocked with 5% non-fat dry milk (Blotting buffer, BioRad). Experiments were conducted at least in independent triplicates. Densitometry analysis was performed using ImageJ. We used the following primary antibodies: mouse anti-BCL6 (SC-7388, Santa Cruz), rabbit anti-BCL2 (SC-7382, Santa Cruz), rabbit anti-MCL1 (SC-819, Santa Cruz), rabbit anti-BIM (2933S, Cell Signaling Technologies), rabbit anti-BLC-XL (2764S, Cell Signaling Technologies), mouse anti-GAPDH (ab8245, Abcam), rabbit anti-NOXA (Santa Cruz), mouse anti-tubulin (T9026, Sigma-Aldrich), rabbit anti-BMF (ab181148, Abcam) and rabbit anti-caspase 9 (9502, Cell Signaling Technologies).

NFkB (p50, p52, p65) = experiment: NFkB DNA-binding activity assay (TransAM), HBL-1 cells; type: cell-based; settings: HBL-1 (ABC-DLBCL) cells; drug at GI50 for 24 h; decreased almost completely
Description: The DNA-binding capacity of NFkB (p50, p52, c-Rel, Rel-B and p65) was assayed by a plate-based assay (TransAM, Active Motif, Carlsbad) following the manufacturer instructions. Briefly, 5×10^6 GCB-DLBCL cells were treated with vehicle, bortezomib or MLN4924 and 10 μg of nuclear lysates were added to the wells containing pre-adsorbed NFkB consensus or competitor (mutant) oligonucleotides. HBL-1 cells (ABC-DLBCL) were used as positive controls for the assay. After incubation and washing, primary anti-NFkB antibody was added to each well, followed by HPR-anti-rabbit secondary antibody. After HRP substrate addition, absorbance was read at 450 nm with a reference wavelength of 655 nm (Synergy4, Biotek). In this assay the absorbance is directly proportional to the quantity of DNA-bound transcription factor present in the sample. Experiments were carried out in four replicates. Results were expressed as mean absorbance values with SEM to mutant probe. P-values were obtained by two-tailed T-test.

OCI-Ly1 xenografts = experiment: OCI-Ly1 xenograft tumor growth; type: in vivo; settings: OCI-Ly1 xenografts in SCID mice, i.p. 10 days; RI-BPI 25 mg/kg/day, ABT-737 50 mg/kg/day, bortezomib 0.3 mg/kg/day, MLN4924 15 mg/kg every 12 h; p<0.05, T-test
Description: as §3, §4

[2] = tested on: BCL6-dependent GCB-DLBCL cell lines; experiment: Dose reduction index, MLN4924 or bortezomib after RI-BPI; type: cell-based; settings: 8 BCL6-dependent GCB-DLBCL cell lines pre-treated with RI-BPI; all the cell lines tested
Description: as §1

BMF = BMF immunoblot; type: cell-based; settings: SU-DHL6 cells
Description: as §5

[3] = tested on: BCL6-dependent GCB-DLBCL cells; experiment: Growth inhibition (GI50), panel of BCL6-dependent GCB-DLBCL cells; type: cell-based; settings: 6 cell lines of the GCB-DLBCL panel; single agent
Description: as §1

SU-DHL6 = experiment: Growth inhibition (GI50); type: cell-based; settings: 48 h, resazurin reduction
Description: as §1

OCI-Ly7 = experiment: Growth inhibition (GI50); type: cell-based; settings: OCI-Ly7 (harbors a BCL2 deletion); Figure 2A, for ABT-737 also ref 14
Description: as §1

DoHH2 = experiment: Growth inhibition (GI50); type: cell-based; settings: 48 h, resazurin reduction
Description: as §1

OCI-Ly1 cells = experiment: Cell viability of OCI-Ly1 cells transfected with siRNA and treated with ABT-737; type: cell-based; settings: ABT-737 250 nM for 72 h
Description: DLBCL cells (3 × 10^6 to 5 × 10^6) were transfected with 1 micromolar siRNA for BCL6 (siBCL6-1 HSS100968 Life Technologies, siBCL6-2 SI00311129 Qiagen, siBCL6-3 SI0031143 Qiagen and siBCL6-4 SI0031150 Qiagen) or control (GFP targeting siRNA) using 96-well electroporation (SF buffer, Lonza).
Cells were grown on U-bottom 96-well plates at respective concentrations sufficient to keep untreated cells under exponential growth by the time of read-out after treatment. Cells were exposed to each drug alone and to the combination of both drugs on the same plate in 48 h experiments. In sequential experiments, compounds were added 48 h apart in 72 h experiments. Cell viability was then determined using a fluorometric assay based on the resazurin reduction activity of the cells (Cell Titer Blue, Promega) and confirmed by trypan blue dye-exclusion (Sigma). Fluorescence was determined for controls and three replicates per treatment condition using the Synergy4 microplate reader (BioTek). Standard curves were obtained for each individual cell line with the cell count and fluorescence values. The number of viable cells was obtained using the least-squares regression method of the standard curve and by doing a ratiometric quantification of viable cells normalized to the respective controls. […] A cell killing effect was calculated as the 1 — normalized viability value.

OCI-Ly4 = experiment: Cell viability, RI-BPI, ABT-737 or combination; type: cell-based; settings: BCL6-independent GCB-DLBCL cell line OCI-Ly4; 48 h; quintuplicates
Description: as §1, with “Fluorescence was determined for controls and three replicates per treatment condition using the Synergy4 microplate reader (BioTek).” left out, “Experiments were conducted in triplicates.” left out
as §2
Supplementary Figure S2: Baseline features of DLBCL cells responsive and resistant to RI-BPI. A. Baseline features of
RI-BPI sensitive (S) and resistant (R) groups of DLBCL cells according to cell-of-origin (COO) classification into GCB and ABC groups,
the presence of BCL6 translocation (3q27) and BCL2 mutation (including amplification and translocation). […]

[4] = tested on: BCL2 independent DLBCL cells; experiment: Dose reduction index, sequential RI-BPI then BH3 mimetic; type: cell-based; settings: pre-treated 48 h with RI-BPI, sequential 72 h; all but one (SU-DHL8) of the BCL2 independent DLBCL cell lines, including OCI-Ly7
Description: as §1

| Structure (SMILES) | sensitivity as single agent (GI50) (SC-1) | sensitivity as single agent (GI50) (SU-DHL4) | percent of apoptotic nuclei (TUNEL) vs vehicle control (OCI-Ly1 lymphoma tissues) | MPV [1] [fL] | tumor growth at day 10 (AUC of tumor volume) vs vehicle (OCI-Ly7 xenografts) | NOXA protein levels (NOXA) | NFκB activation (DNA binding of p50, p52 and p65) (NFkB (p50, p52, p65)) | tumor growth at day 10 (AUC of tumor volume) vs vehicle (OCI-Ly1 xenografts) | enhancement of response to RI-BPI (dose reduction index) [2] | sensitivity as single agent (GI50) (SU-DHL6) | sensitivity as single agent (GI50) (OCI-Ly7) | sensitivity as single agent (GI50) (DoHH2) | sensitivity to BH3 mimetic after RI-BPI treatment (dose reduction index) [4] | also measured |
| --- | --- | --- | --- | --- | --- | --- | --- | --- | --- | --- | --- | --- | --- | --- |
| CC(C)C[C@H](NC(=O)[C@H](Cc1ccccc1)NC(=O)c1cnccn1)B(O)O [bortezomib] | resistant | resistant | significantly increased | 6.6 | significantly reduced | significant stabilization of NOXA | decreased | significantly reduced | favorable DRIs |  |  |  |  | toxicity by body weight follow-up, plasma hematology and biochemistry parameters ([1]; mouse, in vivo): mild monocytosis and AST increase; NFκB activation (DNA binding of p50) (NFkB (p50)): mild decrease; single-agent efficacy compared between drugs (OCI-Ly7 xenografts; OCI-Ly7 xenografts): more effective than obatoclax |
| NS(=O)(=O)OC[C@@H]1C[C@@H](n2ccc3c(N[C@H]4CCc5ccccc54)ncnc32)C[C@@H]1O [MLN4924] |  |  |  | 6.5 | significantly reduced | significant stabilization of NOXA | decreased | significantly reduced | favorable DRIs |  |  |  |  | BMF protein levels (BMF): increased; GI50 [3]: > 100 nM |
| CN(C)CC[C@H](CSc1ccccc1)Nc1ccc(S(=O)(=O)NC(=O)c2ccc(N3CCN(Cc4ccccc4-c4ccc(Cl)cc4)CC3)cc2)cc1[N+](=O)[O-] [ABT-737] | sensitive | sensitive |  |  |  |  |  | significantly reduced |  | sensitive | highly resistant | sensitive | gained sensitivity | loss of viability (OCI-Ly1 cells; OCI-Ly1 transfected with BCL6 siRNA, BCL6 knockdown alone 68%, p < 0.03, T-test): 97%; cells killed (loss of viability) (OCI-Ly1 cells; OCI-Ly1 transfected with control siRNA): 57%; sensitization to RI-BPI by pre-treatment with ABT-737 (OCI-Ly4): failed to sensitize |
| COC1=CC(c2cc3ccccc3[nH]2)=N/C1=C\c1[nH]c(C)cc1C [obatoclax] | sensitive | sensitive | significantly increased | 6.4 | significantly reduced |  |  |  |  | sensitive | highly resistant | sensitive | gained sensitivity |  |
